How the values were obtained:
[1] = tested on: vascular smooth muscle cells; experiment: Phenotypic modulation and dedifferentiation of cultured VSMCs (morphology, hCAD mRNA); assay type: cell-based, rat; conditions: for morphology of VSMCs: 1 μM for 3 days, cultures established in 2 ng/ml IGF-1
Procedure: Expression of lysophosphatidic acid-specific G protein-coupled plasma membrane receptors in rat carotid arteries was examined by RT-PCR as described earlier by Wang et al. (2002). To quantify heavy caldesmon mRNA, quantitative PCR was performed applying the real-time SYBR Green PCR method using a Sequence Detection System Model 7700 (Applied Biosystems) instrument. Rat heavy caldesmon and GAPDH (reference control mRNA)-specific primers were designed with Primer Express Software (Applied Biosystems), and forward and reverse primers were as follows: 5′-[…]-3′ (SEQ ID NO:1) and 5′-[…]-3′ (SEQ ID NO:2) for heavy caldesmon; 5′-[…]-3′ (SEQ ID NO:3) and 5′-[…]-3′ (SEQ ID NO:4) for GAPDH. Amplification reaction was performed with SYBR Green PCR Master Mix (Applied Biosystems) following the manufacturer's protocol. mRNA abundance calculation was based on Ct values as described previously (Wang et al., 2002). The expression level of heavy caldesmon mRNA was normalized to GAPDH mRNA. Each PCR reaction was performed at least three times, and the result was expressed as mean±SEM. Statistical comparison of mRNA expression was evaluated by ANOVA, and P<0.05 was considered statistically significant.
It has been reported that unsaturated lysophosphatidic acid species induced phenotypic modulation of cultured vascular smooth muscle cells (VSMCs). Because the neointimal response and PPARγ display a similar selectivity for unsaturated lysophosphatidic acid, that activation of PPARγ plays a role in the phenotypic dedifferentiation is hypothesized herein. This hypothesis was tested in a culture system in which IGF-1 maintains the differentiated spindle shape of vascular smooth muscle cells as indicated by high levels of heavy caldesmon (hCAD) mRNA expression.

[2] = tested on: CD36; experiment: Immunostaining for CD36 in treated rat carotid arteries; assay type: in vivo; conditions: LPA 2.5 μM, 4 wk after treatment; LDL data not shown
Procedure: (§1) FIGS. 7A-D show immunohistological staining for PPARγ in rat carotid arteries. Only a few nuclei show PPARγ immunoreactivity in a carotid artery 4 wk after treatment with 2.5 μM LPA 20:0 (FIG. 7A). In contrast, the multilayered neointima elicited by LPA 20:4 expresses high levels of PPARγ immunoreactivity (FIG. 7B). Activation of PPARγ within neointima in LPA 20:4-treated carotid arteries is indicated by the strong expression of CD36 in a distribution that overlaps that of PPARγ (FIG. 7D). […] Anti-PPARγ and anti-CD36 were from Santa Cruz Biotechnology, Inc. Bars, 250 μm.
The scavenger receptor CD36, a PPARγ-regulated gene, contains a PPAR response element within its promoter between base pairs −273 and −261. CD36 plays a critical role in lipid uptake by binding and transporting oxidized lipids, including minimally oxidized LDL. Thus, this pathway could provide a source of ligands, such as lysophosphatidic acid, alkyl-GP, and AZ-PC, to sustain PPARγ activation. Acyl and alkyl forms of lysophosphatidic acid both accumulate in human atherosclerotic plaques. Lysophosphatidic acid activates CD36-mediated lipid uptake into macrophages through a PPARγ-PPRE-dependent mechanism.

[3] = tested on: PPARγ; experiment: Immunohistological staining for PPARγ in treated rat carotid arteries; assay type: in vivo; conditions: LPA 2.5 μM, 4 wk after treatment; LDL data not shown
Procedure: as §1
Expression of PPARγ protein was examined in rat carotid arteries exposed to lysophosphatidic acid or minimally oxidized LDL.

[4] = tested on: rat carotid arteries; experiment: Induction of neointima formation in rat carotid artery by topical application; assay type: in vivo; conditions: for neointimal growth: 2.5 μM, 1 h exposure, monitored up to 8 wk (FIG. 4A)
Excerpt: Briefly, the right carotid artery of anesthetized adult male Sprague-Dawley rats (250-300 g) was surgically exposed. The caudal origin of the common carotid artery was ligated using a vessel clip, followed by exposure and ligation of the internal carotid artery above the bifurcation. The external carotid artery was exposed, and a polyethylene catheter was inserted such that it never reached the common carotid artery, thereby avoiding mechanical injury to the vessel. The clip occluding the common carotid artery was temporarily released, and the vessel was rinsed with a retrograde injection of 500 μl physiological saline to remove residual blood. The vessel was again clipped, and 100 μl of treatment solution was injected. After 60 min of incubation, the cannula was withdrawn, the external carotid artery was ligated, and blood flow was restored. Animals were allowed to recover and were killed 7-56 d later by intracardiac perfusion of 10% buffered formaldehyde (pH 7.4). The common carotid artery from the […] to the bifurcation was dissected, embedded in paraffin, and processed for histological analysis. Five μm-thick sections were cut and stained with hematoxylin and eosin or Masson's trichrome stain. Intima to media ratios were quantified using an image analysis system (Scion Image CMS-800).

[5] = tested on: CD36(−261)-Rluc reporter gene; experiment: CD36(−261)-Rluc reporter gene (deleted PPRE) in CV-1 cells; assay type: cell-based; conditions: 10 μM, CV-1 cells (FIG. 7E)
Procedure: (§2) Therefore, the investigators compared the unique in vivo neointima-eliciting lysophosphatidic acid structure-activity relationship with that of PPARγ using an in vitro assay that utilizes an acyl-coenzyme A oxidase-luciferase (PPRE-Acox-Rluc) reporter gene construct containing a peroxisome proliferator-activated receptor response element. CV-1 cells were plated in 96-well plates (5×10^3 cells per well) in DME supplemented with 10% FBS. The next day, the cells were transiently transfected with 125 ng of pGL3-PPRE-acyl-CoA oxidase (Acox)-renilla luciferase), or 125 ng pGL3-CD36(−273), or pGL3-CD36(−261), 62.5 ng of pcDNAI-PPARγ, and 12.5 ng of pSV-β-galactosidase (Promega) using LipofectAMINE™ 2000 (Invitrogen). Twenty four hours after transfection, cells were treated with 1% FBS-supplemented OptiMEMI™ (Invitrogen) containing DMSO or test compound (10 μM) in DMSO for 20 h. Luciferase and β-galactosidase activities were measured with the Steady-Glo® Luciferase Assay System (Promega) and the Galacto-Light Plus™ System (Applied Biosystems), respectively. Samples were run in quadruplicate, and the mean±SE were calculated. Data are representative of at least three independent transfections. Student's t test was used for null hypothesis testing, and P<0.05 was considered significant.

[6] = tested on: CD36(−273)-Rluc reporter gene; experiment: CD36(−273)-Rluc reporter gene (with PPRE) in CV-1 cells; assay type: cell-based; conditions: 10 μM, CV-1 cells (FIG. 7E)
Procedure: as §2

[7] = target: T1, LPA3 (Homo sapiens, UniProt Q9UBY5); conditions: cited from earlier work
T1 sequence (Q9UBY5 1-353): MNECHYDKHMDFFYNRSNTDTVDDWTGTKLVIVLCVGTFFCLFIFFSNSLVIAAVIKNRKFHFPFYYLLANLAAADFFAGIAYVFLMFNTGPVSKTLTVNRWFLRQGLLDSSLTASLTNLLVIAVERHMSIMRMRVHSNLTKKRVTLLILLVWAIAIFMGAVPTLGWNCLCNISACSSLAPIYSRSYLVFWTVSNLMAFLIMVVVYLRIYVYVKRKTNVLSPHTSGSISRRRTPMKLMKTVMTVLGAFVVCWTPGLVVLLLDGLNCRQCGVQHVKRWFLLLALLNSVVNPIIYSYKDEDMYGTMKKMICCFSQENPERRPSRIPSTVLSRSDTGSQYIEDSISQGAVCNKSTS

[8] = target: LPA1 (Homo sapiens, UniProt Q92633); conditions: cited from earlier work
LPA1, sequence (Q92633 whole entry, species assumed): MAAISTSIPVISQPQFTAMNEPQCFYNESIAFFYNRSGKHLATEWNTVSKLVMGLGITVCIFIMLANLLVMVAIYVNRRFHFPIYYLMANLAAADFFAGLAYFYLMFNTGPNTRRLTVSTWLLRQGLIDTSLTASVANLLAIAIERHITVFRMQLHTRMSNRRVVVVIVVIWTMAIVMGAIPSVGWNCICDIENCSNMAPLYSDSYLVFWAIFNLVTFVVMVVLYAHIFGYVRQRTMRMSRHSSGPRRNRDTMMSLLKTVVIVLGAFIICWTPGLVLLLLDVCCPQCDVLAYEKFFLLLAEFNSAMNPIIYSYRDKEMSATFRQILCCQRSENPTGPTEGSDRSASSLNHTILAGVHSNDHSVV

[9] = target: LPA2 (Homo sapiens, UniProt Q9HBW0); conditions: cited from earlier work
LPA2, sequence (Q9HBW0 whole entry, species assumed): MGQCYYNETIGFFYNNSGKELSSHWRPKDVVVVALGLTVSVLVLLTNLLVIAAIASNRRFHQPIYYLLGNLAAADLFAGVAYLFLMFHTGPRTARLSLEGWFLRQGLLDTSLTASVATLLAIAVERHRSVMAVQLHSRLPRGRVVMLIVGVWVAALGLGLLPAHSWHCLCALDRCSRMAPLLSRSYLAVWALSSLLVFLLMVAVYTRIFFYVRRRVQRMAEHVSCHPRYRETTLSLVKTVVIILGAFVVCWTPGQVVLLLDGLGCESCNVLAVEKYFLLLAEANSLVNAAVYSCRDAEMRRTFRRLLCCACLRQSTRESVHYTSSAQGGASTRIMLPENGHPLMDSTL

## CCCCCCCCCCCCCCCCCCCC(=O)OC[C@@H](O)COP(=O)(O)O [LPA 20:0]
[1]
  morphology of VSMCs: maintained the spindle-like differentiated morphology
[2]
  CD36 immunoreactivity in carotid artery: no increase in immunoreactivity
[3]
  PPARγ immunoreactivity in carotid artery: only a few stained nuclei
[4]
  neointimal growth: completely inactive

## CCCCC/C=C\C/C=C\C/C=C\C/C=C\CCCC(=O)OC[C@@H](O)COP(=O)(O)O [LPA 20:4]
[5]
  stimulation of CD36(−261)-Rluc reporter gene (deleted PPRE): neither Rosi nor lysophosphatidic acid 20:4 activated the reporter gene
[1]
  morphology of VSMCs: developed a fibroblast-like flattened morphology
[1]; quantitative RT-PCR, day 5 (FIG. 8I)
  decrease of hCAD mRNA expression: most pronounced
[2]
  CD36 immunoreactivity in carotid artery: intense CD36 immunoreactivity
[3]
  PPARγ immunoreactivity in carotid artery: intense PPARγ immunoreactivity
[4]
  neointimal growth: elicited progressive neointimal growth
[4]; Rosi 10 μM, LPA 20:4 2.5 μM, 10 μM albumin, 2 wk after treatment (FIG. 7F)
  neointima formation when delivered as BSA complexes: elicited neointima formation
[4]; Rosi 10 μM, LPA 20:4 2.5 μM, 2 wk after treatment (FIG. 7F)
  neointima formation when delivered in rat plasma or serum: no neointima formation was detected
[6]
  stimulation of CD36(−273)-Rluc reporter gene: elicited significant stimulation

## CCCCCCCCCCCCOP(=O)(O)O [fatty alcohol phosphate 12:0]
[7]
  activity at LPA3: antagonist
[8]
  activity at LPA1: without any effect
[9]
  activity at LPA2: specific agonist

Reference: patent publication US20040204383A1, “Lysophosphatidic acid analogs and inhibition of neointima formation” (priority 2003, published 2004)
